Measured values from US9732087B2, “Diamino-pyridine, pyrimidine, and pyridazine modulators of the histamine H4 receptor” (JANSSEN PHARMACEUTICA NV, priority 2008, dated 2017).

target: human H4 receptor (Homo sapiens (Human), UniProt Q9H3N8); test: Binding assay on recombinant human histamine H4 receptor ([3H]histamine competition, SK-N-MC cell membranes); conditions: membranes harvested with cell harvester; [3H]histamine 10 nM; average of results; read-out: Cell Harvester Ki
In short: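 Membranes from SK-N-MC cells stably or transiently transfected with human H4 receptor, prepared by homogenization and 30,000 g centrifugation in Tris/EDTA. Bound [3H]histamine separated by rapid filtration on PEI-treated GF/C filters, washed with ice-cold Tris/EDTA, counted by scintillation. '>' values denote highest concentration tested.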

human H4 receptor, sequence (Q9H3N8 whole entry): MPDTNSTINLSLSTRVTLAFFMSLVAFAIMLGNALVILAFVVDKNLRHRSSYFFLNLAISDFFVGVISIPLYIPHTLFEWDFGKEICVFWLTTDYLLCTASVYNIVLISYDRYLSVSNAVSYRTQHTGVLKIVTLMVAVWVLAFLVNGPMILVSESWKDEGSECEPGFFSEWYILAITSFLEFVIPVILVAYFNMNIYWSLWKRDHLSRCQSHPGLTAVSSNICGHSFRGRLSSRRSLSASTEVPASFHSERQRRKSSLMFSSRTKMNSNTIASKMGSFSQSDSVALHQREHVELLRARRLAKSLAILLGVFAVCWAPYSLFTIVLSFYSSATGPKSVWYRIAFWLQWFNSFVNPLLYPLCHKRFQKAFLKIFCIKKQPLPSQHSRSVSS

Row | Structure (SMILES) | Ki [nM]
1 | CN1CCN(c2ccnc(NC34C[C@H]5C[C@@H](C3)C[C@@H](C4)C5)c2)CC1 [Example 219, Adamantan-1-yl-[4-(4-methyl-piperazin-1-yl)-pyridin-2-yl]-amine] | 188
2 | CN1CCN(c2ccnc(NC[C@H]3CC[C@H]4C[C@@H]3C4(C)C)c2)CC1 [Example 221, N-{[(1S,2S,5S)-6,6-Dimethylbicyclo[3.1.1]hept-2-yl]methyl}-4-(4-methylpiperazin-1-yl)pyridin-2-amine] | 853
3 | CN[C@@H]1CCN(c2ccnc(NC3CCOCC3)c2)C1 [Example 222, 4-[(3R)-3-(Methylamino)pyrrolidin-1-yl]-N-(tetrahydro-2H-pyran-4-yl)pyridin-2-amine] | 67.3
4 | CN1CCN(c2ccnc(NC3CCOCC3)c2)CC1 [Example 223, 4-(4-Methylpiperazin-1-yl)-N-(tetrahydro-2H-pyran-4-yl)pyridin-2-amine] | 723
5 | CN[C@H]1CCN(c2ccnc(NC[C@H]3CC[C@H]4C[C@@H]3C4(C)C)c2)C1 [Example 224, N-{[(1S,2S,5S)-6,6-Dimethylbicyclo[3.1.1]hept-2-yl]methyl}-4-[(3S)-3-(methylamino)pyrrolidin-1-yl]pyridin-2-amine] | 239
6 | CN[C@H]1CCN(c2ccnc(NCC3CCCCC3)c2)C1 [Example 225, N-(Cyclohexylmethyl)-4-[(3S)-3-(methylamino)pyrrolidin-1-yl]pyridin-2-amine] | 75.1
7 | CN[C@@H]1CCN(c2ccnc(NCC3CCCC3)c2)C1 [Example 226, N-(Cyclopentylmethyl)-4-[(3R)-3-(methylamino)pyrrolidin-1-yl]pyridin-2-amine] | 3.81
8 | CN[C@H]1CCN(c2ccnc(NCC3CCCC3)c2)C1 [Example 227, N-(Cyclopentylmethyl)-4-[(3S)-3-(methylamino)pyrrolidin-1-yl]pyridin-2-amine] | 260
9 | CN[C@H]1CCN(c2ccnc(NCc3ccccn3)c2)C1 [Example 229, 4-[(3S)-3-(Methylamino)pyrrolidin-1-yl]-N-(pyridin-2-ylmethyl)pyridin-2-amine] | > 10000
10 | CN[C@H]1CCN(c2ccnc(NC3C[C@H]4C[C@@H](C3C)C4(C)C)c2)C1 (stereo partly drawn) [Example 230, 4-[(3S)-3-(Methylamino)pyrrolidin-1-yl]-N-[(1S,5R)-2,6,6-trimethylbicyclo[3.1.1]hept-3-yl]pyridin-2-amine] | 276
11 | CC1C(Nc2cc(N3CCN(C)CC3)ccn2)C[C@H]2C[C@@H]1C2(C)C (stereo partly drawn) [Example 232, 4-(4-Methylpiperazin-1-yl)-N-[(1S,5R)-2,6,6-trimethylbicyclo[3.1.1]hept-3-yl]pyridin-2-amine] | 716
12 | CN[C@H]1CCN(c2ccnc(NC(C)(C)C)c2)C1 [Example 233, N-tert-Butyl-4-[(3S)-3-(methylamino)pyrrolidin-1-yl]pyridin-2-amine] | 215
13 | CN[C@H]1CCN(c2ccnc(NCCCO)c2)C1 [Example 234, 3-({4-[(3S)-3-(Methylamino)pyrrolidin-1-yl]pyridin-2-yl}amino)propan-1-ol] | 7260
14 | CN[C@H]1CCN(c2ccnc(NC3CC3)c2)C1 [Example 235, N-Cyclopropyl-4-[(3S)-3-(methylamino)pyrrolidin-1-yl]pyridin-2-amine] | 409
15 | CN1CCN(c2ccnc(NCC3CCCC3)c2)CC1 [Example 236, N-(Cyclopentylmethyl)-4-(4-methylpiperazin-1-yl)pyridin-2-amine] | 47.4
16 | CN[C@H]1CCN(c2ccnc(NCc3ccccc3)c2)C1 [Example 237, N-Benzyl-4-[(3S)-3-(methylamino)pyrrolidin-1-yl]pyridin-2-amine] | 585
17 | CN[C@H]1CCN(c2ccnc(NCCOC)c2)C1 [Example 238, N-(2-Methoxyethyl)-4-[(3S)-3-(methylamino)pyrrolidin-1-yl]pyridin-2-amine] | 555
18 | COCCNc1cc(N2CCN(C)CC2)ccn1 [Example 239, N-(2-Methoxyethyl)-4-(4-methylpiperazin-1-yl)pyridin-2-amine] | 701
19 | CN[C@@H]1CCN(c2ccnc(NCC(C)(C)O)c2)C1 [Example 240, 2-Methyl-1-({4-[(3R)-3-(methylamino)pyrrolidin-1-yl]pyridin-2-yl}amino)propan-2-ol] | 54.3
20 | CN1CCN(c2ccnc(NCC(C)(C)O)c2)CC1 [Example 241, 2-Methyl-1-{[4-(4-methylpiperazin-1-yl)pyridin-2-yl]amino}propan-2-ol] | 837
21 | CN[C@H]1CCN(c2ccnc(NCC(C)(C)O)c2)C1 [Example 242, 2-Methyl-1-({4-[(3S)-3-(methylamino)pyrrolidin-1 yl]pyridin-2-yl}amino)propan-2-ol] | > 10000
22 | CCCCNc1cc(N2CC[C@H](NC)C2)ccn1 [Example 243] | 167
23 | CN1CCN(c2ccnc(NCc3ccccn3)c2)CC1 [Example 244, 4-(4-Methylpiperazin-1-yl)-N-(pyridin-2-ylmethyl)pyridin-2-amine] | 3880
24 | CN[C@H]1CCN(c2ccnc(NCCc3ccccc3)c2)C1 [Example 245, 4-[(3S)-3-(Methylamino)pyrrolidin-1-yl]-N-(2-phenylethyl)pyridin-2-amine] | 228

Row | Structure (SMILES) | Ki [nM]
25 | CN[C@H]1CCN(c2ccnc(NCc3ccc(F)cc3)c2)C1 [Example 246, N-(4-Fluorobenzyl)-4-[(3S)-3-(methylamino)pyrrolidin-1-yl]pyridin-2-amine] | 395
26 | CN[C@@H]1CCN(c2ccnc(N[C@H]3C[C@H]4CC[C@]3(C)C4(C)C)c2)C1 [Example 247, 4-[(3R)-3-(Methylamino)pyrrolidin-1-yl]-N-[(1R,2S,4R)-1,7,7-trimethylbicyclo[2.2.1]hept-2-yl]pyridin-2-amine] | 1.41
27 | CN1CCN(c2ccnc(NCc3ccc(F)cc3)c2)CC1 [Example 249, N-(4-Fluorobenzyl)-4-(4-methylpiperazin-1-yl)pyridin-2-amine] | 257
28 | CN1CCN(c2ccnc(NCCc3ccccc3)c2)CC1 [Example 250, 4-(4-Methylpiperazin-1-yl)-N-(2-phenylethyl)pyridin-2-amine] | 659
29 | CN[C@H]1CCN(c2ccnc(NCC34CC5CC(CC(C5)C3)C4)c2)C1 [Example 251, Adamantan-1-ylmethyl-[4-(3S)-(3-methylamino-pyrrolidin-1-yl)-pyridin-2-yl]amine] | 79.4
30 | CN1CCN(c2ccnc(N[C@H]3C[C@H]4CC[C@]3(C)C4(C)C)c2)CC1 [Example 252, 4-(4-Methylpiperazin-1-yl)-N-[(1R,2S,4R)-1,7,7-trimethylbicyclo[2.2.1]hept-2-yl]pyridin-2-amine] | 190
31 | CN[C@@H]1CCN(c2ccnc(NCC3CC4CCC3C4)c2)C1 (stereo partly drawn) [Example 253, N-(Bicyclo[2.21]hept-2-ylmethyl)-4-[(3R)-3-(methylamino)pyrrolidin-1-yl]pyridin-2-amine] | 4.33
32 | CCCCNc1cc(N2CC[C@@H](N)C2)ccn1 [Example 254, 4-[(3R)-3-Aminopyrrolidin-1-yl]-N-butylpyridin-2-amine] | 27.5
33 | CN1CCN(c2ccnc(NC[C@]34C[C@H]5C[C@H](C[C@H](C5)C3)C4)c2)CC1 [Example 255, Adamantan-1-ylmethyl-[4-(4-methyl-piperazin-1-yl)-pyridin-2-yl]amine] | 1940
34 | c1cc(N2C[C@H]3CCN[C@H]3C2)cc(NCC2CCCCC2)n1 [Example 256] | 617
35 | N[C@H]1CCN(c2ccnc(NCc3ccccn3)c2)C1 [Example 258, 4-[(3S)-3-Aminopyrrolidin-1-yl]-N-(pyridin-2-ylmethyl)pyridin-2-amine] | > 10000
36 | CNC1CN(c2ccnc(NC3CCCC3)c2)C1 [Example 259, N-Cyclopentyl-4-[3-(methylamino)azetidin-1-yl]pyridin-2-amine] | 5.15
37 | c1ccc(CNc2cc(N3CCNCC3)ccn2)nc1 [Example 260, 4-Piperazin-1-yl-N-(pyridin-2-ylmethyl)pyridin-2-amine] | > 10000
38 | c1cc(N2C[C@H]3CCN[C@H]3C2)cc(NCC2CCCC2)n1 [Example 261, N-(Cyclopentylmethyl)-4-[(3aR,6aR)-hexahydropyrrolo[3,4-b]pyrrol-5(1H)-yl]pyridin-2-amine] | 3560
39 | c1cc(N2C[C@H]3CCN[C@H]3C2)cc(NC2CCCC2)n1 [Example 262, N-Cyclopentyl-4-[(3aR,6aR)-hexahydropyrrolo[3,4-b]pyrrol-5(1H)-yl]pyridin-2-amine] | 22.1
40 | N[C@H]1CCN(c2ccnc(NCc3ccc(F)cc3)c2)C1 [Example 263] | 3090
41 | COCCNc1cc(N2CC[C@H](N)C2)ccn1 [Example 264, 4-[(3S)-3-Aminopyrrolidin-1-yl]-N-(2-methoxyethyl)pyridin-2-amine] | > 10000
42 | c1cc(N2CCCNCC2)cc(NC2CC3CCC2C3)n1 (centres unmarked) [Example 265, N-Bicyclo[2.2.1]hept-2-yl-4-(1,4-diazepan-1-yl)pyridin-2-amine] | 1.71
43 | c1cc(N2C[C@H]3CCN[C@H]3C2)cc(NC2C3CC4CC(C3)CC2C4)n1 (stereo partly drawn) [Example 266, Adamantan-2-yl-[4-(3aR,6aR)-(hexahydro-pyrrolo[3,4-b]pyrrol-5-yl)pyridin-2-yl]-amine] | 14.5
44 | N[C@H]1CCN(c2ccnc(NCc3ccccc3)c2)C1 [Example 267, 4-[(3S)-3-Aminopyrrolidin-1-yl]-N-benzylpyridin-2-amine] | 1530
45 | N[C@H]1CCN(c2ccnc(NC3CCCC3)c2)C1 [Example 268, 4-[(3S)-3-Aminopyrrolidin-1-yl]-N-cyclopentylpyridin-2-amine] | 247
46 | CC1C(Nc2cc(N3CCNCC3)ccn2)C[C@H]2C[C@@H]1C2(C)C (stereo partly drawn) [Example 269, 4-Piperazin-1-yl-N-[(1S,5R)-2,6,6-trimethylbicyclo[3.1.1]hept-3-yl]pyridine-2-amine] | 2100
47 | N[C@@H]1CCN(c2ccnc(NC3CC4CCC3C4)c2)C1 (stereo partly drawn) [Example 270, 4-[(3R)-3-Aminopyrrolidin-1-yl]-N-bicyclo[2.2.1]hept-2-ylpyridin-2-amine] | 3.53
